The values below are quoted from earlier work in patent US20070021605A1, “PROCESS AND COMPOSITION FOR MAKING OLANZAPINE FORM I” (priority 2005, published 2007).

The conditions of this data set: water, pH 6.8; free base.

Turning to `Cc1cc2c(s1)Nc1ccccc1N=C2N1CCN(C)CC1` [Olanzapine], the solubility entry is “about 0.02 mg/ml”.
